Results from patent US10961189B2, “Spiro-lactam NMDA receptor modulators and uses thereof” (Aptinyx Inc., priority 2016, dated 2021).
Read-outs that look alike come from different tables or passages of the source.

Assays:
[1] = biological target: T1, NMDAR2B (Homo sapiens, UniProt Q13224); assay: [3H]MK-801 binding in NMDAR expressing HEK cell membranes (facilitation of NMDAR activation); format: biochemical; conditions: 50 μM glutamate; for Emax: 0.25 h, read-out: A: % maximal [3H]MK-801 binding relative to 1 mM glycine; for EC50: read-out: B: log EC50 (converted)
T1 construct: expressed in transfected cells; host or cells: HEK cells (membrane extract)
Protocol: (§1) Assays were conducted as described by Moskal et al., “GLYX-13: a monoclonal antibody-derived peptide that acts as an N-methyl-D-aspartate receptor modulator,” Neuropharmacology, 49, 1077-87, 2005. These studies were designed to determine if the test compounds act to facilitate NMDAR activation in NMDAR2A, NMDAR2B, NMDAR2C or NMDAR2D expressing HEK cell membranes as measured by increases in [^3H]MK-801 binding.
(§2) In the assay, 300 μg of NMDAR expressing HEK cell membrane extract protein was preincubated for 15 minutes at 25° C. in the presence of saturating concentrations of glutamate (50 μM) and varying concentrations of test compound (1×10^15M−1×10^−7M), or 1 mM glycine. Following the addition of 0.3 μCi of [^3H]MK-801 (22.5 Ci/mmol), reactions were again incubated for 15 minutes at 25° C. (nonequilibrium conditions). Bound and free [^3H]MK-801 were separated via rapid filtration using a Brandel apparatus.
(§3) In analyzing the data, the DPM (disintegrations per minute) of [^3H]MK-801 remaining on the filter were measured for each concentration of test compound or for 1 mM glycine. The DPM values for each concentration of a ligand (N=2) were averaged. The baseline value was determined from the best fit curve of the DPM values modeled using the GraphPad program and the log(agonist) vs. response (three parameters) algorithm was then subtracted from all points in the dataset. The % maximal [^3H]MK-801 binding was then calculated relative to that of 1 mM glycine: all baseline subtracted DPM values were divided by the average value for 1 mM glycine. The EC50 and % maximal activity were then obtained from the best fit curve of the % maximal [^3H]MK-801 binding data modelled using the GraphPad program and the log(agonist) vs. response (three parameters) algorithm.
(§4) The tables below summarize the results for the wild type NMDAR agonists NMDAR2A, NMDAR2B, NMDAR2C, and NMDAR2D, and whether the compound is not an agonist (−), is an agonist (+), or is a strong agonist (++), where column A is based on the % maximal [^3H]MK-801 binding relative to 1 mM glycine (−=0; <100%=+; and >100%=++); and column B is based on log EC50 values (0=−; ≥1×10^−9 M (e.g., −8)=+; and <1×10^−9 M (e.g., −10)=++).

[2] = biological target: T2, NMDAR2A (Homo sapiens, UniProt Q12879); assay: as above; format: biochemical; conditions: 50 μM glutamate; for Emax: 0.25 h, read-out: A: % maximal [3H]MK-801 binding relative to 1 mM glycine; for EC50: read-out: B: log EC50 (converted)
T2 construct: expressed in transfected cells; host or cells: HEK cells (membrane extract)
Protocol: as §1, §2, §3, §4

[3] = IV pharmacokinetics; format: in vivo, Sprague Dawley rats; conditions: rat, normal saline (* in 5% NMP, 5% Solutol HS, 90% normal saline); for AUC(0-t) / half-life / C0 / Vd: Sprague-Dawley, in vivo; for C0: read-out: C0; for Vd: read-out: Vss
Source text: The table below summarizes the results of the IV pharmacokinetics.

[4] = oral pharmacokinetics (plasma, brain, CSF); format: in vivo, Sprague Dawley rats; conditions: rat, per os 10 mg/kg; for AUC(0-t) / bioavailability / Tmax / Cmax: Sprague-Dawley, plasma, po; for Tmax: normal saline (* in 5% NMP, 5% Solutol HS, 90% normal saline), read-out: Tmax; for Cmax: read-out: Cmax
Protocol: In another experiment, Sprague Dawley rats were dosed per os using a normal saline formulation containing 10 mg/kg of the compounds identified in the table below (except for the compounds marked with an asterisk (“*”) that were delivered in 5% NMP, 5% Solutol® HS and 90% normal saline formulation). Plasma, brain, and CSF samples were analyzed at various time points over a 24 hour period.

T2 sequence (Q12879 23-1464, species assumed, other chains not shown): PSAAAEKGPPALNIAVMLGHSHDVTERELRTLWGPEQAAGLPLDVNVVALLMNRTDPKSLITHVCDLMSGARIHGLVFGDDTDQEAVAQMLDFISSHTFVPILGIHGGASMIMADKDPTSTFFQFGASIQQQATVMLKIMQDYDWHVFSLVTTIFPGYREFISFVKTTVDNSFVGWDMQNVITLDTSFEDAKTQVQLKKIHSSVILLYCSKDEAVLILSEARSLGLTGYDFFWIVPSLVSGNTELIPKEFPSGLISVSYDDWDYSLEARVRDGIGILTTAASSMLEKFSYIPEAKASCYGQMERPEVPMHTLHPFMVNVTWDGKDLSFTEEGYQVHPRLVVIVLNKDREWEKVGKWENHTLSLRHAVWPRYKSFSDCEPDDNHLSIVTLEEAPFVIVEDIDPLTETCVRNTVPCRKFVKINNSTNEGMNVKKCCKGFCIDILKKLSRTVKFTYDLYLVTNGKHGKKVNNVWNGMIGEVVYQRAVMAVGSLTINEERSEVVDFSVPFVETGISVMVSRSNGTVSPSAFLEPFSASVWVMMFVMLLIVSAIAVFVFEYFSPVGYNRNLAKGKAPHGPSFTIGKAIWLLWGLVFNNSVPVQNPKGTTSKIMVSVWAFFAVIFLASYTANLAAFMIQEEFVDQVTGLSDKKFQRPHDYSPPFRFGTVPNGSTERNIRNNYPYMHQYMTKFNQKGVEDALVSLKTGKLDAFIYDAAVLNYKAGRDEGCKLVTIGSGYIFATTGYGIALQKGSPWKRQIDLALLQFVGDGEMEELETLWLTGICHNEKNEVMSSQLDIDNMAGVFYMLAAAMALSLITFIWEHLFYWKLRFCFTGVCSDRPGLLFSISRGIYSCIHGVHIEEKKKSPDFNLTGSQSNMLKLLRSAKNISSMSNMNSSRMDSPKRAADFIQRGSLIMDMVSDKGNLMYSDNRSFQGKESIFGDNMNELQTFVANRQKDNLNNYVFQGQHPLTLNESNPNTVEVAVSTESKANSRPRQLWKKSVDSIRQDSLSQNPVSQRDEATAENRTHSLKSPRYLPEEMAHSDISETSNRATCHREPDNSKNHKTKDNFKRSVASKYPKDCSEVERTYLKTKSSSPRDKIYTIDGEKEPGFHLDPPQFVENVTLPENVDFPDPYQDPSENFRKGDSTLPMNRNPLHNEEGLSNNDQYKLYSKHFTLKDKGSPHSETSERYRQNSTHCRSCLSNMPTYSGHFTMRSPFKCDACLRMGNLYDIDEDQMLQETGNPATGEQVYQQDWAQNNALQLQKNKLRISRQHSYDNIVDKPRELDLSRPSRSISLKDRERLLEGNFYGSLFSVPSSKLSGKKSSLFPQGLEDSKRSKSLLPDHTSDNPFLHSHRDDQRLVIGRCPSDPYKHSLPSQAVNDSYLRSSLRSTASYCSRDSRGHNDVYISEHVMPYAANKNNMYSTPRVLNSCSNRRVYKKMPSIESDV
T1 sequence (Q13224 27-1484, species assumed, other chains not shown): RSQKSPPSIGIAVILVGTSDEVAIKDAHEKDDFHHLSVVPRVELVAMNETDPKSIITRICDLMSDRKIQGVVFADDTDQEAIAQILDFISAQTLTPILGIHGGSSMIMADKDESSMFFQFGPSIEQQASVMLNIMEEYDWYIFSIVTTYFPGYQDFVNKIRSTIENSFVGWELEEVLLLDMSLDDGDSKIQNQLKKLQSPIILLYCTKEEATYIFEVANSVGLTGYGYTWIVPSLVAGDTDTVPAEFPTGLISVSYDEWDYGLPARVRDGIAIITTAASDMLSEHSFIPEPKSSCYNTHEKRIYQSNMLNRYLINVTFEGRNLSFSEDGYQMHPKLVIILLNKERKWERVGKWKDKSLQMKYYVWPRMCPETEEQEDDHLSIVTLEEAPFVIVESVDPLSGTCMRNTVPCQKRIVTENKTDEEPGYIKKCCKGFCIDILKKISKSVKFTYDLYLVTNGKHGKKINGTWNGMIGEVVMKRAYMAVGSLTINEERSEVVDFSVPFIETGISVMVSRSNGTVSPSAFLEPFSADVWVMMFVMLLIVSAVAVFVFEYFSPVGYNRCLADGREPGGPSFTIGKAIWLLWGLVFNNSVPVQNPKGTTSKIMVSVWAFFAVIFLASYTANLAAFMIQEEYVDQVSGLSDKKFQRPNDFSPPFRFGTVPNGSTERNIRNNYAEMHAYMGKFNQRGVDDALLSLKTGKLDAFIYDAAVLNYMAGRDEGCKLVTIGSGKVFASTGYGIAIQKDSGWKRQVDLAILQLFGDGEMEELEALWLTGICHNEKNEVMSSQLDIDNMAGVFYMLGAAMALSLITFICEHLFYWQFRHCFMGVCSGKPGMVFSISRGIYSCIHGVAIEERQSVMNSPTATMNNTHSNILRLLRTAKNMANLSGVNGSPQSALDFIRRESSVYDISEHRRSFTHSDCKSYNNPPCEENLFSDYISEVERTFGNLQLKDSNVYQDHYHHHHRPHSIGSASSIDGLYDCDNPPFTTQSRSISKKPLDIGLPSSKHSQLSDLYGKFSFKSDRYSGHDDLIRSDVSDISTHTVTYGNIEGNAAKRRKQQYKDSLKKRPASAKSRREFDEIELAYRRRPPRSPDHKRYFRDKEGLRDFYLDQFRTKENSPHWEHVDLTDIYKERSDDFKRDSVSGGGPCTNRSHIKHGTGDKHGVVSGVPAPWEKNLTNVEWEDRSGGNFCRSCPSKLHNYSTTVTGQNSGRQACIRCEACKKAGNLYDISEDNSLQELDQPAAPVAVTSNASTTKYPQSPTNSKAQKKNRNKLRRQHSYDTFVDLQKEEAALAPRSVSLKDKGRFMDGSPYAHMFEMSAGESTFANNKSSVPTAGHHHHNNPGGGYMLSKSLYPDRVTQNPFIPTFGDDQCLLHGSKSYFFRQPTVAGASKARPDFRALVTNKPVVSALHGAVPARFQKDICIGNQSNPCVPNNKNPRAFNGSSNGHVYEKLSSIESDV

| Structure (SMILES) | Emax [1] | Emax [2] | EC50 [2] | CI ([3]; intravenous 2 mg/kg) | CSF Cmax [4] | Brain Cmax [4] | EC50 [1] | AUC(0-t) ([3]; intravenous 2 mg/kg) | half-life ([3]; intravenous 2 mg/kg) | C0 ([3]; intravenous 2 mg/kg) | Vd ([3]; intravenous 2 mg/kg) | bioavailability [4] | Tmax [4] | AUC(0-t) [4] | Cmax [4] | A: % maximal [3H]MK-801 binding relative to 1 mM glycine [2] | A: % maximal [3H]MK-801 binding relative to 1 mM glycine [1] | other results |
| --- | --- | --- | --- | --- | --- | --- | --- | --- | --- | --- | --- | --- | --- | --- | --- | --- | --- | --- |
| C[C@@H](O)[C@@H](C(N)=O)N1CC2(CCC(O)CC2)C1=O (stereo partly drawn) [Compound AM, (2S,3R)-3-hydroxy-2-(7-hydroxy-1-oxo-2-azaspiro[3.5]nonan-2-yl)butanamide] | 0% | 0% | – | – | – | – | – | – | – | – | – | – | – | – | – | – | – | – |
| CC1CCC2(CC1)CN(CC(N)=O)C2=O (centres unmarked) [Compound BC, 2-(7-methyl-1-oxo-2-azaspiro[3.5]nonan-2-yl)acetamide] | 0% | < 100% | < 1 nM | 145.13 mL/min/kg | 1362 ng/mL | 2321 ng/mL | – | – | – | – | – | – | – | – | – | – | – | AUC(0-t) ([3]; iv, 2 mg/kg): 233 ng·h/mL; half-life ([3]; iv, 2 mg/kg): 13.2 min; C0 ([3]; iv, 2 mg/kg): 658 ng/mL; Vd ([3]; iv, 2 mg/kg): 2.67 L/kg; AUC(0-t) ([4]; 10 mg/kg): 612 ng·h/mL; bioavailability ([4]; 10 mg/kg): 52%; Tmax ([4]; 10 mg/kg): 15 min; Cmax ([4]; 10 mg/kg): 869 ng/mL |
| CC1CCC2(CC1)CN([C@@H](CCC(=O)O)C(=O)O)C2=O (stereo partly drawn) [EQ, (S)-2-(7-methyl-1-oxo-2-azaspiro[3.5]nonan-2-yl)pentanedioic acid] | 0% | < 100% | < 1 nM | – | – | – | – | – | – | – | – | – | – | – | – | – | – | – |
| O=C1NCC12CCC(NCc1ccccc1)CC2 (centres unmarked) [EX] | > 100% | < 100% | < 1 nM | 50.52 mL/min/kg | 459.46 ng/mL | 2799.98 ng/mL | < 1 nM | 659 ng·h/mL | 70.8 min | 1340 ng/mL | 2.71 L/kg | 100% | 120 min | 7380 ng·h/mL | 3190 ng/mL | – | – | – |
| CN(Cc1ccccc1)C1CCC2(CC1)CNC2=O (centres unmarked) [EY] | < 100% | – | – | 27.44 mL/min/kg | 539.09 ng/mL | 1833.34 ng/mL | < 1 nM | 1210 ng·h/mL | 33.6 min | 2100 ng/mL | 1.09 L/kg | 48% | 30 min | 2920 ng·h/mL | 1130 ng/mL | − (−=0) | – | – |
| CN(Cc1ccccc1)C1CCC2(CC1)CNC2=O (centres unmarked) [EZ] | – | – | < 1 nM | – | – | – | < 1 nM | – | – | – | – | – | – | – | – | + (<100%=+) | + (<100%=+) | – |
| CCN(Cc1ccccc1)C1CCC2(CC1)CNC2=O (centres unmarked) [FA] | – | – | – | – | – | – | – | – | – | – | – | – | – | – | – | − (−=0) | − (−=0) | – |
| CCN(Cc1ccccc1)C1CCC2(CC1)CNC2=O (centres unmarked) [FB] | – | – | < 1 nM | 41.98 mL/min/kg | 981.8 ng/mL | 3632.82 ng/mL | < 1 nM | 782 ng·h/mL | 45 min | 981 ng/mL | 2.33 L/kg | 87% | 30 min | 3410 ng·h/mL | 1590 ng/mL | + (<100%=+) | + (<100%=+) | – |
| O=C1N(OCc2ccccc2)CC12CCC(O)CC2 (centres unmarked) [FE] | 0% | – | < 1 nM | – | – | – | – | – | – | – | – | – | – | – | – | + (<100%=+) | – | – |
| O=C1N(OCc2ccccc2)CC12CCC(O)CC2 (centres unmarked) [FF] | – | – | – | – | – | – | – | – | – | – | – | – | – | – | – | − (−=0) | − (−=0) | – |
